Test [1] concerns the target T1, Histone acetyltransferase p300 (Homo sapiens, UniProt Q09472). The test can be described thus: Binding affinity to P300 in human LN229 cell nuclear extracts by Western blot analysis. A general note: Immunoblotting shows a protein as a band on a membrane.
Test [2] has as its target T1, Histone acetyltransferase p300. The experiment in a line: Binding affinity to GST-tagged recombinant P300 CH1 domain expressed in Escherichia coli BL21 by Coomassie staining-based gel electrophoresis. To be noted: tested as the 14C-labelled form.
Test [3] shares this target. The test can be described thus: Binding affinity to recombinant P300 CH1 domain assessed as dissociation constant by surface plasmon resonance analysis. (In general: Surface plasmon resonance follows binding to a sensor surface in real time, without labels.)
The target of test [4] is Hypoxia-inducible factor 1-alpha (Homo sapiens) (UniProt Q16665). The experiment in a line: Binding affinity to HIF1alpha in human LN229 cell nuclear extracts by Western blot analysis.

Activity calls are given as the source filed them. No cut-off for these calls is given here.

The values that follow come from ChEMBL document CHEMBL2169864, “Binding Model for the Interaction of Anticancer Arylsulfonamides with the p300 Transcription Cofactor” (ACS Med Chem Lett, 2012).

T1 sequence (Q09472 whole entry, the tested form may be a part): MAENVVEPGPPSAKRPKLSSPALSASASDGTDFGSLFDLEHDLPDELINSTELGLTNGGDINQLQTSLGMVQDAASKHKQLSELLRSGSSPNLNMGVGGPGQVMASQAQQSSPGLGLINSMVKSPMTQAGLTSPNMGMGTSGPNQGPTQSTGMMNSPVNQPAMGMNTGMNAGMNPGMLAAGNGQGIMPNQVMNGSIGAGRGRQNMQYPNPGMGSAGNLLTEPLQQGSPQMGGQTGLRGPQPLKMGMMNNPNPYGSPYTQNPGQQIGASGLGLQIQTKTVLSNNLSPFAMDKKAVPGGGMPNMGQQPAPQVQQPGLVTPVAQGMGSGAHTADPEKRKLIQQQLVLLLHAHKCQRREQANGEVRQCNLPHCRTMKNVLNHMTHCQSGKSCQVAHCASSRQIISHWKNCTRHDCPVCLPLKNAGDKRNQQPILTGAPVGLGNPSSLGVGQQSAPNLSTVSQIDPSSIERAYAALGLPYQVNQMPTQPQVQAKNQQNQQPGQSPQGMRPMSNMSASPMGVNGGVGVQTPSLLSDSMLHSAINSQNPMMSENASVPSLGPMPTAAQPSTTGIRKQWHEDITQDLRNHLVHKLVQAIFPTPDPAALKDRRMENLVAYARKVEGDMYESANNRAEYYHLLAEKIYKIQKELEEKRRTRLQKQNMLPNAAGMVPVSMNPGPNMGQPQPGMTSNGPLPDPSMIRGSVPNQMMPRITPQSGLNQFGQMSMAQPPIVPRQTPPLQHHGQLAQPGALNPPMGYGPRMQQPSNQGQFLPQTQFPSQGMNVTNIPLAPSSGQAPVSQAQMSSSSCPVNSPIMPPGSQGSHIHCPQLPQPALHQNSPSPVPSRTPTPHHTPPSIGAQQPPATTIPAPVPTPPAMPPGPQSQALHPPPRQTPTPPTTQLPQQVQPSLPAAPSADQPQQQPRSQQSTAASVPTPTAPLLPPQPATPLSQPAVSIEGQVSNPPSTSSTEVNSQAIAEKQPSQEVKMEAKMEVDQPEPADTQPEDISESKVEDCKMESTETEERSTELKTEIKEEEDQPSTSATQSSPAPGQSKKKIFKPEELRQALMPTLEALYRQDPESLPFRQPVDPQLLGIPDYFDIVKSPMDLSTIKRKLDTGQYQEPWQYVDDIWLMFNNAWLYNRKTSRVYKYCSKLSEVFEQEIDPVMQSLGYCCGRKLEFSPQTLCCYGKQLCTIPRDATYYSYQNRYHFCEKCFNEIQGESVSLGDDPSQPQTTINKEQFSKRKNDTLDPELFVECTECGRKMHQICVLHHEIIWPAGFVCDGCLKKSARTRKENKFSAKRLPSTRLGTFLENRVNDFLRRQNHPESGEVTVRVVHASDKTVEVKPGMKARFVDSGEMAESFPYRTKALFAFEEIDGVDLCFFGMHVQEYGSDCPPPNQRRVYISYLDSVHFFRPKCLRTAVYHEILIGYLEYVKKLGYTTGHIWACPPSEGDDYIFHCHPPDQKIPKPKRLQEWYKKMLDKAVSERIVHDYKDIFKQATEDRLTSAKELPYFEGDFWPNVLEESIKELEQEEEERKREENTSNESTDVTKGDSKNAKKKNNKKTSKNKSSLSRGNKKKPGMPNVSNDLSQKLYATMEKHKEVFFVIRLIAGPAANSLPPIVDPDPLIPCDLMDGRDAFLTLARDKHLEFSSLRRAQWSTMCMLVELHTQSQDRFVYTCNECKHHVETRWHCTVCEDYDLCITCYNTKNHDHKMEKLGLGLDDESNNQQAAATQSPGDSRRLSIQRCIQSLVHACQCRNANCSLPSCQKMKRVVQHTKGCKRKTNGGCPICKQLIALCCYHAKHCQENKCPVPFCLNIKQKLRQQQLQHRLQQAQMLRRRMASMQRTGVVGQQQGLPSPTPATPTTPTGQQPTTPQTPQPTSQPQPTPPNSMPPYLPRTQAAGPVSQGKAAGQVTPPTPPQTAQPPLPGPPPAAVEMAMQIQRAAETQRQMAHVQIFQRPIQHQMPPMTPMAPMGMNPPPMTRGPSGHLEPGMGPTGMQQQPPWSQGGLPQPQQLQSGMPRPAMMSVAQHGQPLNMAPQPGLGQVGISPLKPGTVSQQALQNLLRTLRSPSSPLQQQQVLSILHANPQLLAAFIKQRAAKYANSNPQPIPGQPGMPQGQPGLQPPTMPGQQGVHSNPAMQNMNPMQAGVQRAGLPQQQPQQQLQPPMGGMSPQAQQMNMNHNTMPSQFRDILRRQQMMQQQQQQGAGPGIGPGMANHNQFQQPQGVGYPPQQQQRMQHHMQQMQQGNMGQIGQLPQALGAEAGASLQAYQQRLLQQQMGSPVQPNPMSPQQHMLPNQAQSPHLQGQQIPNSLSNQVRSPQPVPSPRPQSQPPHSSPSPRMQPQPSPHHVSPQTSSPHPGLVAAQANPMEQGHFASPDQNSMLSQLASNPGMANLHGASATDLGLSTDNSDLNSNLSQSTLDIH
Hypoxia-inducible factor 1-alpha (Homo sapiens), sequence (Q16665 whole entry, looked up): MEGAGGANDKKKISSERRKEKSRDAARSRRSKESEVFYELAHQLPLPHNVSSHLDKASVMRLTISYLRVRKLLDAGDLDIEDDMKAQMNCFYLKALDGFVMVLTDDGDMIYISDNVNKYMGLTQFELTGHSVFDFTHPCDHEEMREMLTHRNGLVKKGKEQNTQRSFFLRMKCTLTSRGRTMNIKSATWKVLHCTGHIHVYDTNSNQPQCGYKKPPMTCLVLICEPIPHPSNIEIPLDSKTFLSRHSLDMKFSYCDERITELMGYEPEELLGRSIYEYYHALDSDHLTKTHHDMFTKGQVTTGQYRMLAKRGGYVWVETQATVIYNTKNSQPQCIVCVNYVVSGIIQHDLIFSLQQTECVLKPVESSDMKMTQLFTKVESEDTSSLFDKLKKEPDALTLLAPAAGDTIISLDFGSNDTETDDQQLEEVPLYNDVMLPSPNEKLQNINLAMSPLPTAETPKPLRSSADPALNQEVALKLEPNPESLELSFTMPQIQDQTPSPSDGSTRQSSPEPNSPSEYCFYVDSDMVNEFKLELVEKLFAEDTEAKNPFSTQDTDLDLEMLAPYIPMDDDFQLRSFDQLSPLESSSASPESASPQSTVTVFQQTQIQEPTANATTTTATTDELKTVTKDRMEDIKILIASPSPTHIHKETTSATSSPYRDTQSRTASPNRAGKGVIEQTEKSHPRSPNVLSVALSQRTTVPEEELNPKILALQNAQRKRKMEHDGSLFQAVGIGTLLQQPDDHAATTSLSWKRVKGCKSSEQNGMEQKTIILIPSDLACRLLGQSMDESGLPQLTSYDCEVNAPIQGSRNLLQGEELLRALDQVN

For orientation: Kd means the free concentration of one partner at which half of the binding sites on the other are occupied at equilibrium, for simple one-to-one binding. Turning to `COc1ccc(S(=O)(=O)N(Cc2ccc3c(c2)C=CC(C)(C)O3)c2ccccc2)cc1OC`, the result in test [1] and in test [2] was Active. In addition, in test [3], the Kd came out at 345 nM. Besides, the result in test [4] was inactive.
